Test results published in patent publication US20140120060A1, “TREATMENT OF RHEUMATOID ARTHRITIS AND ASTHMA USING PI3 KINASE INHIBITORS” (INFINITY PHARMACEUTICALS, INC., priority 2012, published 2014).

Tested on: B cell
Test: B cell proliferation
Type: cell-based

Q: With `Cc1cccc2cc(Cn3cnc4c(N)ncnc43)n(-c3ccccc3F)c(=O)c12` [Compound 1] as the compound, how does the EC50 read?
A: < 10000 nM

Q: `Cc1cccc2cc(Cn3nc(I)c4c(N)ncnc43)n(-c3ccccc3F)c(=O)c12` [Compound 2] was tested. Which EC50 did it give?
A: < 10000 nM

Q: With `Cc1cccc2cc(Cn3nc(-c4cc(O)cc(F)c4)c4c(N)ncnc43)n(-c3ccccc3F)c(=O)c12` [Compound 3] as the compound, how does the EC50 read?
A: < 100 nM

Q: Which EC50 does the source give for `Cc1cccc2cc(Cn3nc(C#CC4CC4)c4c(N)ncnc43)n(-c3ccccc3F)c(=O)c12` [Compound 4] here?
A: < 1000 nM

Q: `Cc1ccccc1-n1c(Cn2cnc3c(N)ncnc32)cc2cccc(C)c2c1=O` [Compound 5] was tested. Which EC50 did it give?
A: < 10000 nM

Q: With `Cc1cccc2cc(Cn3nc(C#CCO)c4c(N)ncnc43)n(-c3ccccc3F)c(=O)c12` [Compound 8] as the compound, how does the EC50 read?
A: < 1000 nM

Q: `Cc1cccc2cc(Cn3nc(-c4ccc(F)c(O)c4)c4c(N)ncnc43)n(-c3ccccc3F)c(=O)c12` [Compound 9] was tested. Which EC50 did it give?
A: < 1000 nM

Q: Which EC50 does the source give for `Cc1cccc2cc(Cn3nc(-c4cccc(O)c4)c4c(N)ncnc43)n(-c3ccccc3F)c(=O)c12` [Compound 10] here?
A: < 1000 nM

Q: `Cc1ccccc1-n1c(Cn2nc(C#CCO)c3c(N)ncnc32)cc2cccc(C)c2c1=O` [Compound 11] was tested. Which EC50 did it give?
A: < 1000 nM

Q: With `Cc1ccccc1-n1c(Cn2nc(-c3ccc(F)c(O)c3)c3c(N)ncnc32)cc2cccc(C)c2c1=O` [Compound 12] as the compound, how does the EC50 read?
A: < 100 nM

Q: `Cc1ccccc1-n1c(Cn2nc(-c3cccc(O)c3)c3c(N)ncnc32)cc2cccc(C)c2c1=O` [Compound 13] was tested. Which EC50 did it give?
A: < 100 nM

Q: For `Cc1ccccc1-n1c(Cn2nc(C#CC3CC3)c3c(N)ncnc32)cc2cccc(C)c2c1=O` [Compound 14], which EC50 is on record?
A: < 1000 nM

Q: Which EC50 does the source give for `Cc1cccnc1-n1c(Cn2nc(I)c3c(N)ncnc32)cc2cccc(C)c2c1=O` [Compound 15] here?
A: < 1000 nM

Q: `Cc1cccnc1-n1c(Cn2nc(-c3cc(O)cc(F)c3)c3c(N)ncnc32)cc2cccc(C)c2c1=O` [Compound 16] was tested. Which EC50 did it give?
A: < 100 nM

Q: With `Cc1cccnc1-n1c(Cn2nc(Br)c3c(N)ncnc32)cc2cccc(C)c2c1=O` [Compound 17] as the compound, how does the EC50 read?
A: < 100 nM

Q: How did the EC50 turn out when `Cc1cccnc1-n1c(Cn2nc(Cl)c3c(N)ncnc32)cc2cccc(C)c2c1=O` [Compound 18] was run?
A: < 1000 nM

Q: With `Cc1ccccc1-n1c(Cn2nc(Br)c3c(N)ncnc32)cc2cccc(C)c2c1=O` [Compound 19] as the compound, how does the EC50 read?
A: < 1000 nM

Q: `Cc1ccccc1-n1c(Cn2nc(Cl)c3c(N)ncnc32)cc2cccc(C)c2c1=O` [Compound 20] was tested. Which EC50 did it give?
A: < 1000 nM

Q: Which EC50 does the source give for `COc1cc(-c2nn(Cc3cc4cccc(C)c4c(=O)n3-c3ccccc3C)c3ncnc(N)c23)ccc1Cl` [Compound 21] here?
A: < 1000 nM

Q: Which EC50 does the source give for `COc1cc(-c2nn(Cc3cc4cccc(C)c4c(=O)n3-c3ccccc3F)c3ncnc(N)c23)ccc1Cl` [Compound 22] here?
A: < 10000 nM

Q: With `Cc1ccccc1-n1c(Cn2nc(-c3ccc(Cl)c(O)c3)c3c(N)ncnc32)cc2cccc(C)c2c1=O` [Compound 23] as the compound, how does the EC50 read?
A: < 100 nM

Q: Which EC50 does the source give for `Cc1cccc2cc(Cn3nc(-c4ccc(Cl)c(O)c4)c4c(N)ncnc43)n(-c3ccccc3F)c(=O)c12` [Compound 24] here?
A: < 1000 nM

Q: Which EC50 does the source give for `Cc1ccccc1-n1c(Cn2nc(-c3ccc(O)c(Cl)c3)c3c(N)ncnc32)cc2cccc(C)c2c1=O` [Compound 25] here?
A: < 1000 nM

Q: With `Cc1cccc2cc(Cn3nc(-c4ccc(O)c(Cl)c4)c4c(N)ncnc43)n(-c3ccccc3F)c(=O)c12` [Compound 26] as the compound, how does the EC50 read?
A: < 10000 nM

Q: With `Cc1ccccc1-n1c(Cn2nc(-c3ccc(F)cc3)c3c(N)ncnc32)cc2cccc(C)c2c1=O` [Compound 27] as the compound, how does the EC50 read?
A: < 10000 nM

Q: Which EC50 does the source give for `Cc1cccc2cc(Cn3nc(C#C[C@@H](C)O)c4c(N)ncnc43)n(-c3ccccc3F)c(=O)c12` [Compound 28] here?
A: < 1000 nM

Q: `Cc1cccc2cc(Cn3nc(-c4ccc(O)c(F)c4)c4c(N)ncnc43)n(-c3ccccc3F)c(=O)c12` [Compound 29] was tested. Which EC50 did it give?
A: < 1000 nM

Q: Which EC50 does the source give for `Cc1ccccc1-n1c(Cn2nc(-c3ccc(O)c(F)c3)c3c(N)ncnc32)cc2cccc(C)c2c1=O` [Compound 30] here?
A: < 1000 nM

Q: Which EC50 does the source give for `Cc1ccccc1-n1c(Cn2nc(I)c3c(N)ncnc32)cc2ccccc2c1=O` [Compound 31] here?
A: < 1000 nM

Q: How did the EC50 turn out when `Cc1ccccc1-n1c(Cn2nc(C#C[C@@H](C)O)c3c(N)ncnc32)cc2ccccc2c1=O` [Compound 32] was run?
A: < 1000 nM

Q: `Cc1ccccc1-n1c(Cn2nc(-c3cc(O)cc(F)c3)c3c(N)ncnc32)cc2ccccc2c1=O` [Compound 33] was tested. Which EC50 did it give?
A: < 100 nM

Q: `Cc1cccc2cc(Cn3nc(Cl)c4c(N)ncnc43)n(-c3ccccc3F)c(=O)c12` [Compound 34] was tested. Which EC50 did it give?
A: < 1000 nM

Q: With `Cc1cccc2cc(Cn3nc(Br)c4c(N)ncnc43)n(-c3ccccc3F)c(=O)c12` [Compound 35] as the compound, how does the EC50 read?
A: < 1000 nM

Q: Which EC50 does the source give for `Cc1ccccc1-n1c(Cn2nc(-c3ccc(O)cc3)c3c(N)ncnc32)cc2cccc(C)c2c1=O` [Compound 36] here?
A: < 1000 nM

Q: With `Cc1ccccc1-n1c(Cn2nc(C#C[C@@H](C)O)c3c(N)ncnc32)cc2cccc(C)c2c1=O` [Compound 37] as the compound, how does the EC50 read?
A: < 100 nM

Q: For `Cc1cccc2cc(Cn3nc(-c4cccc(Cl)c4)c4c(N)ncnc43)n(-c3ccccc3F)c(=O)c12` [Compound 38], which EC50 is on record?
A: > 10000 nM

Q: How did the EC50 turn out when `Cc1ccccc1-n1c(Cn2nc(-c3cccc(Cl)c3)c3c(N)ncnc32)cc2cccc(C)c2c1=O` [Compound 39] was run?
A: < 10000 nM

Q: With `Cc1cccc2cc(Cn3nc(-c4cccc(F)c4)c4c(N)ncnc43)n(-c3ccccc3F)c(=O)c12` [Compound 40] as the compound, how does the EC50 read?
A: < 10000 nM

Q: With `Cc1ccccc1-n1c(Cn2nc(-c3cccc(F)c3)c3c(N)ncnc32)cc2cccc(C)c2c1=O` [Compound 41] as the compound, how does the EC50 read?
A: < 1000 nM

Q: `Cc1ccccc1-n1c(Cn2nc(I)c3c(N)ncnc32)cc2cccc(F)c2c1=O` [Compound 42] was tested. Which EC50 did it give?
A: < 1000 nM

Q: For `Cc1ccccc1-n1c(Cn2nc(C#C[C@@H](C)O)c3c(N)ncnc32)cc2cccc(F)c2c1=O` [Compound 43], which EC50 is on record?
A: < 10000 nM

Q: Which EC50 does the source give for `COc1ccc(-c2nn(Cc3cc4cccc(C)c4c(=O)n3-c3ccccc3C)c3ncnc(N)c23)cc1OC` [Compound 44] here?
A: < 100 nM

Q: For `COc1ccc(-c2nn(Cc3cc4cccc(C)c4c(=O)n3-c3ccccc3C)c3ncnc(N)c23)cc1` [Compound 45], which EC50 is on record?
A: < 1000 nM

Q: For `Cc1cccc2cc(Cn3nc(-c4ccc(O)cc4)c4c(N)ncnc43)n(-c3ccccc3F)c(=O)c12` [Compound 46], which EC50 is on record?
A: < 1000 nM

Q: How did the EC50 turn out when `COc1ccc(-c2nn(Cc3cc4cccc(C)c4c(=O)n3-c3ccccc3F)c3ncnc(N)c23)cc1OC` [Compound 47] was run?
A: < 1000 nM

Q: `Cc1ccccc1-n1c(Cn2nc(-c3cnc4[nH]ccc4c3)c3c(N)ncnc32)cc2cccc(C)c2c1=O` [Compound 48] was tested. Which EC50 did it give?
A: < 100 nM

Q: For `Cc1ccccc1-n1c(Cn2nc(-c3ccc(Cl)cc3)c3c(N)ncnc32)cc2cccc(C)c2c1=O` [Compound 49], which EC50 is on record?
A: < 10000 nM

Q: For `Cc1ccccc1-n1c(Cn2nc(-c3ccc4cc[nH]c4c3)c3c(N)ncnc32)cc2cccc(C)c2c1=O` [Compound 50], which EC50 is on record?
A: < 1000 nM

Q: How did the EC50 turn out when `Cc1ccccc1-n1c(Cn2nc(-c3cccc(O)c3)c3c(N)ncnc32)cc2ccccc2c1=O` [Compound 51] was run?
A: < 1000 nM

Q: `CC(=O)Nc1nc2ccc(-c3nn(Cc4cc5cccc(C)c5c(=O)n4-c4ccccc4C)c4ncnc(N)c34)cc2s1` [Compound 53] was tested. Which EC50 did it give?
A: < 100 nM

Q: `Cc1ccccc1-n1c(Cn2nc(-c3ccc(F)c(O)c3)c3c(N)ncnc32)cc2ccccc2c1=O` [Compound 54] was tested. Which EC50 did it give?
A: < 100 nM

Q: How did the EC50 turn out when `Cc1ccccc1-n1c(Cn2nc(-c3cc(O)cc(F)c3)c3c(N)ncnc32)cc2cccc(F)c2c1=O` [Compound 55] was run?
A: < 100 nM

Q: For `Cc1cccc2cc(Cn3nc(I)c4c(N)ncnc43)n(C3CCCC3)c(=O)c12` [Compound 57], which EC50 is on record?
A: < 10000 nM

Q: How did the EC50 turn out when `Cc1cccc2cc(Cn3nc(C#C[C@@H](C)O)c4c(N)ncnc43)n(C(C)C)c(=O)c12` [Compound 61] was run?
A: < 1000 nM

Q: `Cc1cccc2cc(Cn3nc(-c4cccc(O)c4)c4c(N)ncnc43)n(C(C)C)c(=O)c12` [Compound 62] was tested. Which EC50 did it give?
A: < 100 nM

Q: How did the EC50 turn out when `Cc1cccc2cc(Cn3nc(-c4cc(O)cc(F)c4)c4c(N)ncnc43)n(C3CCCC3)c(=O)c12` [Compound 63] was run?
A: < 100 nM

Q: How did the EC50 turn out when `Cc1cccc2cc(Cn3nc(-c4cc(O)cc(F)c4)c4c(N)ncnc43)n(C(C)C)c(=O)c12` [Compound 66] was run?
A: < 100 nM

Q: `Cc1cccc2cc(Cn3nc(-c4ccc(F)c(O)c4)c4c(N)ncnc43)n(C(C)C)c(=O)c12` [Compound 67] was tested. Which EC50 did it give?
A: < 100 nM

Q: `Cc1cccnc1-n1c(Cn2nc(-c3ccc(F)c(O)c3)c3c(N)ncnc32)cc2cccc(C)c2c1=O` [Compound 68] was tested. Which EC50 did it give?
A: < 100 nM

Q: For `Cc1cccnc1-n1c(Cn2nc(C#C[C@@H](C)O)c3c(N)ncnc32)cc2cccc(C)c2c1=O` [Compound 69], which EC50 is on record?
A: < 1000 nM

Q: `COc1ccccc1-n1c(Cn2nc(I)c3c(N)ncnc32)cc2cccc(C)c2c1=O` [Compound 70] was tested. Which EC50 did it give?
A: < 1000 nM

Q: For `Cc1cccc2cc(Cn3nc(-c4ccc(Cl)c(O)c4)c4c(N)ncnc43)n(C3CCCC3)c(=O)c12` [Compound 71], which EC50 is on record?
A: < 10000 nM

Q: How did the EC50 turn out when `Cc1cccnc1-n1c(Cn2nc(-c3ccc(Cl)c(O)c3)c3c(N)ncnc32)cc2cccc(C)c2c1=O` [Compound 72] was run?
A: < 100 nM

Q: Which EC50 does the source give for `Cc1cccnc1-n1c(Cn2nc(-c3cccc(O)c3)c3c(N)ncnc32)cc2cccc(C)c2c1=O` [Compound 73] here?
A: < 100 nM

Q: For `COc1ccccc1-n1c(Cn2nc(-c3cccc(O)c3)c3c(N)ncnc32)cc2cccc(C)c2c1=O` [Compound 74], which EC50 is on record?
A: < 100 nM

Q: For `Cc1cccc2cc(Cn3nc(I)c4c(N)ncnc43)n(-c3ccccc3C(C)C)c(=O)c12` [Compound 75], which EC50 is on record?
A: < 100 nM

Q: For `Cc1cccc2cc(Cn3nc(I)c4c(N)ncnc43)n(-c3ccccc3Cl)c(=O)c12` [Compound 76], which EC50 is on record?
A: < 1000 nM

Q: For `CCc1ccccc1-n1c(Cn2nc(I)c3c(N)ncnc32)cc2cccc(C)c2c1=O` [Compound 77], which EC50 is on record?
A: < 1000 nM

Q: With `Cc1ccncc1-n1c(Cn2nc(I)c3c(N)ncnc32)cc2cccc(C)c2c1=O` [Compound 78] as the compound, how does the EC50 read?
A: < 1000 nM

Q: Which EC50 does the source give for `Cc1cccc2cc(Cn3nc(I)c4c(N)ncnc43)n(-c3ccccc3O)c(=O)c12` [Compound 79] here?
A: < 1000 nM

Q: For `COc1ccccc1-n1c(Cn2nc(C#C[C@@H](C)O)c3c(N)ncnc32)cc2cccc(C)c2c1=O` [Compound 80], which EC50 is on record?
A: < 1000 nM

Q: How did the EC50 turn out when `Cc1cccc2cc(Cn3nc(-c4cccc(O)c4)c4c(N)ncnc43)n(-c3ccccc3O)c(=O)c12` [Compound 81] was run?
A: < 100 nM

Q: `Cc1cccc2cc(Cn3nc(-c4cccc(O)c4)c4c(N)ncnc43)n(-c3ccccc3C(C)C)c(=O)c12` [Compound 82] was tested. Which EC50 did it give?
A: < 100 nM

Q: How did the EC50 turn out when `Cc1cccc2cc(Cn3nc(C#C[C@@H](C)O)c4c(N)ncnc43)n(-c3ccccc3C(C)C)c(=O)c12` [Compound 83] was run?
A: < 100 nM

Q: `COc1ccccc1-n1c(Cn2nc(-c3cc(O)cc(F)c3)c3c(N)ncnc32)cc2cccc(C)c2c1=O` [Compound 84] was tested. Which EC50 did it give?
A: < 100 nM
